Measurements taken from the supplement of paper PMC10307832.

Columns and labels:
Assay in all cases: relative viability (nuclei count vs DMSO), 5 days (fraction); higher = more cells survive
[1] = compound: CC(O)(CS(=O)(=O)c1ccc(F)cc1)C(=O)Nc1ccc(C#N)c(C(F)(F)F)c1 [Bicalutamide] + N=C(N)NC(=N)NCCc1ccccc1 [Phenformin] (partner 250 µM)
Summary of the method: (§1)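 Cells from lung cancer lines were seeded into 1536-well plates and, one day later, dosed by pin tool. Treatments were either a single drug or a fixed dose of an anchor drug with five library-drug doses (not always all listed) in √10 steps. After 5 days, nuclei were stained in a one-step fixation (final 0.05% Triton X-100, 1% formaldehyde, 1 ug/ml Hoechst) and counted on 4× images, and relative viability is the treated-to-vehicle nuclei ratio, as the median of duplicate plates.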

[2] = compound: C(C(=O)C(=O)O)Br [Bromopyruvate] + CC(=O)Nc1cccc(-n2c(=O)n(C3CC3)c(=O)c3c(Nc4ccc(I)cc4F)n(C)c(=O)c(C)c32)c1 [Trametinib] (partner 0.02 µM)
Summary of the method: as §1

Bromopyruvate + AZD7762 = compound: C(C(=O)C(=O)O)Br [Bromopyruvate] + NC(=O)Nc1cc(-c2cccc(F)c2)sc1C(=O)N[C@H]1CCCNC1 [AZD7762] (partner 0.2 µM)
Summary of the method: as §1

[3] = compound: C(C(=O)C(=O)O)Br [Bromopyruvate] + CS(=O)(=O)N1CCN(Cc2cc3nc(-c4cccc5[nH]ncc45)nc(N4CCOCC4)c3s2)CC1 [Pictilisib] (partner 1 µM)
Summary of the method: as §1

Cell Line	relative viability ([1]; first compound 0.08 µM)	relative viability ([1]; first compound 0.253 µM)	relative viability ([1]; first compound 0.8 µM)	relative viability ([1]; first compound 2.53 µM)	relative viability ([2]; first compound 1 µM)	relative viability ([2]; first compound 3.162 µM)	relative viability ([2]; first compound 10 µM)	relative viability ([2]; first compound 31.62 µM)	relative viability ([2]; first compound 100 µM)	relative viability (Bromopyruvate + AZD7762; first compound 1 µM)	relative viability (Bromopyruvate + AZD7762; first compound 3.162 µM)	relative viability (Bromopyruvate + AZD7762; first compound 10 µM)	relative viability (Bromopyruvate + AZD7762; first compound 31.62 µM)	relative viability (Bromopyruvate + AZD7762; first compound 100 µM)	relative viability ([3]; first compound 1 µM)	relative viability ([3]; first compound 3.162 µM)	relative viability ([3]; first compound 10 µM)	relative viability ([3]; first compound 31.62 µM)	relative viability ([3]; first compound 100 µM)
HCC-78	0.776	0.557	0.796	0.668	0.746	0.681	0.955	0.71	0.72	0.481	0.624	0.565	0.549	0.463	0.201	0.202	0.224	0.218	0.249
IA-LM	–	–	–	–	–	–	–	–	–	–	–	–	–	–	0.336	0.357	0.328	0.28	0.434
NCI-H441	0.849	0.745	1.09	0.683	0.47	0.529	0.506	0.526	0.458	1.01	1.18	1.06	0.978	1.14	0.428	0.543	0.498	0.466	0.571
NCI-H322M	0.821	0.789	0.904	0.859	0.525	0.537	0.517	0.536	0.5	0.623	0.58	0.523	0.581	0.628	0.464	0.536	0.502	0.529	0.56
NCI-H1993	0.437	0.51	0.434	0.447	0.52	0.561	0.493	0.533	0.535	0.821	0.872	0.994	0.851	0.982	0.827	0.729	0.895	0.935	0.774
COR-L23	0.5	0.487	0.512	0.414	0.585	0.652	0.651	0.582	0.544	–	–	–	–	–	0.763	0.772	0.98	0.673	0.524
COR-L 105	0.481	0.412	0.52	0.37	0.432	0.449	0.417	0.422	0.329	–	–	–	–	–	0.524	0.371	0.361	0.434	0.379
SK-LU-1	0.571	0.519	0.637	0.48	0.503	0.469	0.599	0.467	0.538	–	–	–	–	–	0.545	0.65	0.616	0.551	0.53
NCI-H661	0.289	0.284	0.289	0.251	0.546	0.588	0.579	0.523	0.603	–	–	–	–	–	0.445	0.349	0.458	0.337	0.354
NCI-H2228	0.356	0.371	0.58	0.291	0.472	0.505	0.548	0.514	0.538	–	–	–	–	–	0.349	0.37	0.402	0.416	0.635
NCI-H2009	0.504	0.491	0.469	0.423	0.277	0.328	0.246	0.26	0.245	–	–	–	–	–	0.764	0.831	0.742	0.709	0.613
